Consider 3 compounds from patent US7485647B2, “2-aminoquinoline derivatives” (Banyu Pharmaceutical Co., Ltd., priority 2003, dated 2009).

The target in this test is T1, human MCH-1R (Homo sapiens, UniProt Q99705).
T1 construct: expressed in transfected cells; host or cells: CHO-K1 (American Type Culture Collection)
T1 sequence (Q99705 whole entry): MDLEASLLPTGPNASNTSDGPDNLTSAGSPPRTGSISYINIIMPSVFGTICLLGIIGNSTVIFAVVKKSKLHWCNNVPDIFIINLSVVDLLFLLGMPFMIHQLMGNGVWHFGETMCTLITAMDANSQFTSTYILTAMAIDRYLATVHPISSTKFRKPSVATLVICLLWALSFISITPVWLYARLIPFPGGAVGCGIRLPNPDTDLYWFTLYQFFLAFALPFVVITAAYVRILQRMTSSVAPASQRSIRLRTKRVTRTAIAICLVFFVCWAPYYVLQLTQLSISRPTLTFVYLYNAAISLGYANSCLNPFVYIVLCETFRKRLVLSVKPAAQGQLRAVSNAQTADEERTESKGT
Description: MCH binding inhibition test. The following applies: membranes of MCH-1R expressing CHO-K1 cells, 50 pM [125I]MCH, 25° C., one hour; read-out: IC50 (50% inhibition concentration to specific [125I]MCH binding). How it is done:
A human MCH-1R encoding cDNA sequence [FEBS Letters, Vol. 398, p. 253 (1996); Biochimica et Biophisica Acta, Vol. 1401, p. 216 (1998)] was cloned to plasmid vector pEF/mic/cyto (Invitrogen Corporation). The obtained expression vector was transfected to a host cell CHO-K1 (American Type Culture Collection) using lipofectamine plus reagent (Life Technology Inc.) to provide MCH-1R expression cells.
Membrane samples prepared from the MCH-1R expression cells were incubated with each test compound and 50 pM of [^125I]MCH (NEN Co.), in an assay buffer (50 mM Tris buffer comprising 10 mM magnesium chloride, 2 mM ethylenediamine tetraacetate, 0.01% bacitracin and 0.2% bovine serum albumin; pH 7.4) at 25° C. for an hour, followed by filtration through Glass Filter GF/C (Wattman Co.). After washing the glass filter with 50 mM Tris buffer (pH7.4) comprising 10 mM magnesium chloride, 2 mM ethylenediamine tetraacetate and 0.04% Tween-20, radio activity on the glass filter was measured. Non-specific binding was measured in the presence of 1 μM human MCH and 50% inhibition concentration (IC50 value) of each test compound to specific [^125I] MCH binding was determined.
As for `CN1C(=O)CCC12CCN(c1ccc3cc(NC(=O)c4ncc(-c5ccc(F)cc5)cn4)ccc3n1)C2` (stereo not drawn) [Example 1, 5-(4-Fluorophenyl)-N-[2-(1-methyl-2-oxo-1,7-diazaspiro[4,4]-nonan-7-yl)-6-quinolinyl]-2-pyrimidinecarboxamide], the IC50 amounted to 8 nM.
As for `CC(C)C(=O)N(C)[C@@H]1CCN(c2ccc3cc(NC(=O)c4ncc(-c5ccccc5)cn4)ccc3n2)C1` [Example 3, N-(2-[(3R)-3-[isobutyryl(methyl)amino]-1-pyrrolidinyl]-6-quinolinyl)-5-phenyl-2-pyrimidinecarboxamide], the IC50 stood at 4.1 nM.
As to `CN(C)C(=O)N(C)[C@@H]1CCN(c2ccc3cc(NC(=O)c4ncc(-c5ccccc5)cn4)ccc3n2)C1` [Example 9, N-(2-[(3R)-3-[[(dimethylamino)carbonyl](methyl)amino]-1-pyrrolidinyl]-6-quinolinyl)-5-phenyl-2-pyrimidinecarboxamide], the IC50 worked out at 3.7 nM.
